{"source": "patent US20230218639A1", "about": "“USE OF OXYGENATED CHOLESTEROL SULFATES FOR TREATING NEUROLOGICAL CONDITIONS, NEURODEGENERATIVE DISEASES, AND ADDICTION” (Durect Corporation, priority 2020, published 2023)", "key": {"[1]": {"tested_on": "CpG sites in promoter regions of LINE-1 element, Huh-7 cells", "assay": "LINE-1 global methylation assay", "format": "cell-based, human", "details": "Huh-7 cells in HG media, 25HC3S for 4 hours", "procedure": "Each sample, 2 μg, was sent to […], Inc. (Hopkinton, Mass.) for analysis of global methylation bisulfite sequencing. The same samples, 6 μg, were sent to Novogene Co., Ltd (Tianjin, China) for analysis of whole genome bisulfite sequencing (WGBS). Total RNA was isolated using the Promega SV total RNA isolation system (Madison, Wis.) with DNase treatment. […] Real-time RT-PCR was performed using SYBR Green as the indicator on ABI 7500 Fast Real-Time PCR System (Applied Biosystems, Foster City, Calif.). Amplifications of β-actin or GAPDH were used as internal controls. Relative messenger RNA (mRNA) expression was quantified with the comparative cycle threshold (Ct) method using the primer set shown in Table 1.1 and was expressed as 2^-ΔΔCt. […] PCR reaction and product purification were performed as per the manufacturer's protocol (GE Healthcare Life Sciences). The PCR products, 10 μl, were sequenced by Pyrosequencing on the PSQ96 HS System following the manufacturer's instructions (Pyrosequencing, Qiagen). The methylation status of each CpG site was determined individually as an artificial C/T SNP using QCpG software (Pyrosequencing, Qiagen). The methylation level at each CpG site was calculated as the percentage of the methylated alleles divided by the sum of all methylated and unmethylated alleles. The mean methylation level was calculated using methylation levels of all measured CpG sites within the targeted region of each gene. Each experiment included non-CpG cytosines as internal controls to detect incomplete bisulfite conversion of the input DNA. In addition, a series of unmethylated and methylated DNA were included as controls in each PCR assay. Furthermore, PCR bias testing was performed by mixing unmethylated control DNA with in vitro methylated DNA at different ratios (0%, 5%, 10%, 25%, 50%, 75%, and 100%), followed by bisulfite modification, PCR, and Pyro-sequencing analysis."}, "[2]": {"tested_on": "Huh-7 cells", "assay": "Real-time RT-PCR gene expression", "format": "cell-based, human", "details": "Huh-7, HG 72 hours; 25HC3S 6.25-50 μM, 1-8 hours", "procedure": "FIGS. 3A-3D. Expression of key genes related to signaling pathways. […] Key Genes and their targeting genes expression were determined by RT-PCR analysis. […] Each sample, 2 μg, was sent to […], Inc. (Hopkinton, Mass.) for analysis of global methylation bisulfite sequencing. The same samples, 6 μg, were sent to Novogene Co., Ltd (Tianjin, China) for analysis of whole genome bisulfite sequencing (WGBS). Total RNA was isolated using the Promega SV total RNA isolation system (Madison, Wis.) with DNase treatment. […] Real-time RT-PCR was performed using SYBR Green as the indicator on ABI 7500 Fast Real-Time PCR System (Applied Biosystems, Foster City, Calif.). Amplifications of β-actin or GAPDH were used as internal controls. Relative messenger RNA (mRNA) expression was quantified with the comparative cycle threshold (Ct) method using the primer set shown in Table 1.1 and was expressed as 2^-ΔΔCt."}, "[3]": {"assay": "Plasma pharmacokinetics, single intravenous dose", "format": "in vivo, Sprague Dawley rats", "details": "single intravenous (bolus) dose 10 mg/kg", "procedure": "Nine male Sprague Dawley rats (Group 1) were designated for the pharmacokinetic phase, 3 male Sprague Dawley rats (Group 2) for the excretion mass balance phase, and 7 male Sprague Dawley rats (Group 3) and 9 male Long Evans rats (Group 4) for the tissue distribution phase. All animals received a single intravenous dose of [^14C]-25HC3S at 10 mg/kg and a target radioactivity of 225 μCi/kg. Blood samples were collected from all Group 1 animals at approximately 0.083, 0.25, 0.5, 1, 2, 4, 8, 12, 24, 48, and 72 hours post-dose. Urine and feces were collected from all Group 2 animals periodically through 168 hours post-dose. […] Following blood collection, animals were euthanized by CO2 inhalation and carcasses frozen in a dry ice/hexane bath for processing by quantitative whole body autoradiography. Whole blood, plasma, urine, feces, cage rinse, and cage wash were analyzed for total radioactivity by liquid scintillation counting."}, "[4]": {"design": "species or system rats", "details": "Sprague Dawley, rat, in vivo, po, 75 mg/kg"}}}
{"molecule": "C[C@H](CCCC(C)(C)O)[C@H]1CC[C@H]2[C@@H]3CC=C4C[C@@H](OS(=O)(=O)O)CC[C@]4(C)[C@H]3CC[C@]12C", "note": "[25HC3S, 5-Cholesten-3β, 25-diol 3-sulfate]", "values": [{"measurement": "Reduction of methylation (demethylation) at Pos1 of LINE-1", "setting": "[1]", "result": "−5", "unit": "%"}, {"measurement": "Reduction of methylation (demethylation) at Pos3 of LINE-1", "setting": "[1]", "result": "−10", "unit": "%"}, {"measurement": "Reduction of methylation (demethylation) at Pos 4 of LINE-1", "setting": "[1]", "result": "−5.6", "unit": "%"}, {"measurement": "decreased expression of FAS", "setting": "[2]", "result": "~90", "unit": "%"}, {"measurement": "decreased expression of HMGR", "setting": "[2]", "result": "~90", "unit": "%"}, {"measurement": "increased expression of CREB5", "setting": "[2]", "result": "up to 20 fold"}, {"measurement": "increased expression of DUSP8", "setting": "[2]", "result": 5, "unit": "fold"}, {"measurement": "increased expression of PGC1A", "setting": "[2]", "result": 12, "unit": "fold"}, {"measurement": "plasma AUClast", "setting": "[3]", "result": "27,900 h*ng-equiv./g"}, {"measurement": "terminal elimination phase T1/2, plasma", "setting": "[3]; PK phase", "result": 26.6, "unit": "h"}, {"measurement": "dose recovered in urine, feces, and cage rinse", "setting": "[4]", "result": "approximately 94.5%"}, {"measurement": "recovered radioactivity in feces", "setting": "[4]", "result": 94.2, "unit": "%"}]}
